From patent publication US6495698B1, “Binder-free compacted forms of 1,3-dihalo-5,5-dimethylhydantoins” (Albemarle Corporation, priority 2000, dated 2002)

Legend:
Assay type in all cases: physicochemical
[1] = Particle size determination with Coulter LS Particle Size Analyzer; conditions: for Particle Size 10% is greater than / Particle Size 25% is greater than / Particle Size 50% is greater than / Particle Size 75% is greater than / Particle Size 90% is greater than / Particle Size Average: commercially available sample
Protocol: All particle size determinations referred to in the following Examples were determined by use of a Coulter® LS Particle Size Analyzer. The analyzer was equipped with an LS 230 small volume module and a Fraunhofer PIDS (Polarization Intensity Differential Scattering) detector switched to the “On” position. The determinations were performed at room temperature with a run time of approximately 1 minute per sample. Prior to conducting the particle size determination, and whenever the sample appeared to contain particles adhering to each other, the sample was subjected for 15±1 seconds to sonication using a Sonicor Model SC-100T apparatus to ensure that the particle size measurements were on individual particles of the product, rather than temporarily agglomerated particles.
Samples of commercially-available N,N′-dihalo-5,5-dimethylhydantoins were obtained and subjected to standard test procedures inorderto determine their average particle size using the Coulter® LS Particle Size Analyzer. Table 1 summarizes the results of these average particle size determinations, and also sets forth the data obtained in the same way on arepresentative sample of the 1,3-dibromo-5,5-dimethylhydantoin product of application Ser. No. 09/484,687. Table 2 summarizes the particle size distribution data on the commercially-available 1,3-dihalo-5,5-dimethylhydantoins. In Table 2 the following abbreviations are used: DCDMH is 1,3-dichloro-5,5-dimethylhydantoin; BCDMH is N,N′-bromochloro-5,5-dimethylhydantoin; and DBDMH is 1,3-dibromo-5,5-dimethylhydantoin.

[2] = Tableting (pressure compaction) without binder in Sintech press; conditions: for compaction into tablets without binder (state of tablets released from the die): without any binder
Excerpt: The commerically available 1,3-dihalo-5,5-dimethylhydantoins referred to in Example 1 were subjected to tableting operations. Five-gram samples of 1,3-dibromo-5,5-dinethylhydantoin and four-gram samples of DCDMH and BCDMH were compacted without binder in a Sintech® press (MTS Systems Corporation, Edenprairie, Minn.) equipped with a punch and die fabricated from Hastelloy® C alloy. Before manually filling the die, the interior surfaces of the die were lightly dusted with micronized polypropylene wax (MICROPRO 400 wax; Micro Powders, Incorporated, Tarrytown, N.Y.). The pressure applied was 5000 psi with no dwell time, i.e., the pressure was terminated automatically immediately upon reaching 5000 psi. The resultant tablets after removal from the die were aged for 6 days at room temperature. Thereupon the tablets were subjected to crush strength testing utilizing a Sintech® 1/S compression apparatus (MTS Systems Corporation, Edenprairie, Minnesota) equipped with Testworks software, which software is installed in the 1/S compression apparatus as supplied by MTS Systems Corporation. The apparatus includes a horizontal circular-shaped load cell interfaced with a computer, a digital micrometer also interfaced with the computer, and a vertical screw-driven piston that is disposed above the load cell and adapted to apply a downward force perpendicular to the load cell. The procedure for measuring crush strength involves measuring the thickness of the tablet with the micrometer to provide a digitized input to the computer. Next the tablet is placed on its edge on the load cell with the piston in contact with the upper edge of the tablet. Then the apparatus is activated whereby the piston commences applying a progressively increasing downward diametral force to the tablet. At the same time, the load cell continuously measures the downward force being applied to the tablet, and the input of such measurements is transmitted to the computer. […]

[3] = Crush strength testing of tablets (Sintech 1/S compression apparatus); conditions: binder-free tablets compacted at 5000 psi, aged 6 days at room temperature; average of three tests
Excerpt: The commerically available 1,3-dihalo-5,5-dimethylhydantoins referred to in Example 1 were subjected to tableting operations. Five-gram samples of 1,3-dibromo-5,5-dinethylhydantoin and four-gram samples of DCDMH and BCDMH were compacted without binder in a Sintech® press (MTS Systems Corporation, Edenprairie, Minn.) equipped with a punch and die fabricated from Hastelloy® C alloy. Before manually filling the die, the interior surfaces of the die were lightly dusted with micronized polypropylene wax (MICROPRO 400 wax; Micro Powders, Incorporated, Tarrytown, N.Y.). The pressure applied was 5000 psi with no dwell time, i.e., the pressure was terminated automatically immediately upon reaching 5000 psi. The resultant tablets after removal from the die were aged for 6 days at room temperature. Thereupon the tablets were subjected to crush strength testing utilizing a Sintech® 1/S compression apparatus (MTS Systems Corporation, Edenprairie, Minnesota) equipped with Testworks software, which software is installed in the 1/S compression apparatus as supplied by MTS Systems Corporation. […]
As used herein, including the claims, values given for crush strength are as measured using the apparatus and procedure as described in Example 2 above. […]

[4] = material compacted on small scale in manually filled dies

Average Particle Size ([1]; Source: Aldrich Chemical Co.) [microns] | Particle Size 10% is greater than [1] [μ] | Particle Size 25% is greater than [1] [μ] | Particle Size 50% is greater than [1] [μ] | Particle Size 75% is greater than [1] [μ] | Particle Size 90% is greater than [1] [μ] | Particle Size Average [1] [μ] | Average Particle Size ([1]; Source: Albemarle Corporation) [microns] | Average Particle Size ([1]; Source: Great Lakes Chemical Corporation) [microns] | Average Particle Size ([1]; Source: the product of Application No. 09/484,687) [microns] | Compaction ([2]; without binder, 5000 psi, no dwell time, die dusted with micronized polypropylene wax, listed as 1,3-dibromo-5,5-dimethyhydantoin) | SMILES | Average Particle Size [1, 4] | compaction into tablets without binder (state of tablets released from the die) [2] | Crush strength [3] [lb/in]
 | 78.76 | 49.76 | 34.68 | 23.25 | 13.90 | 45.23 |  |  |  |  | CC1(C)C(=O)N(Br)C(=O)N1Br [DBDMH - Great Lakes, 1,3-dibromo-5,5-dimethylhydantoin] |  |  | 
 | 359.2 | 177.6 | 86.03 | 47.37 | 27.67 | 162.1 |  |  |  |  | CC1(C)C(=O)N(Br)C(=O)N1Br [DBDMH - Aldrich, 1,3-dibromo-5,5-dimethylhydantoin] |  |  | 
162.1 |  |  |  |  |  |  | 64.5 | 45.2 | >500 | could not be tableted | CC1(C)C(=O)N(Br)C(=O)N1Br [1,3-dibromo-5,5-dimethylhydantoin] |  |  | 
 | 162.7 | 90.12 | 39.21 | 26.85 | 17.91 | 64.59 |  |  |  |  | CC1(C)C(=O)N(Br)C(=O)N1Br [DBDMH - Albemarle, 1,3-dibromo-5,5-dimethylhydantoin] |  |  | 
108.1 | 195.3 | 134.4 | 80.07 | 45.99 | 27.19 | 108.1 |  |  |  |  | CC1(C)C(=O)N(Cl)C(=O)N1Cl [DCDMH - Aldrich, 1,3-dichloro-5,5-dimethylhydantoin] | about 108 microns | intact and exhibited no visual surface imperfections | 183.6

SMILES | Average Particle Size ([1]; Source: Aldrich Chemical Co.) [microns] | Particle Size 10% is greater than [1] [μ] | Particle Size 25% is greater than [1] [μ] | Particle Size 50% is greater than [1] [μ] | Particle Size 75% is greater than [1] [μ] | Particle Size 90% is greater than [1] [μ] | Particle Size Average [1] [μ] | Average Particle Size ([1]; Source: Albemarle Corporation) [microns] | Average Particle Size ([1]; Source: Great Lakes Chemical Corporation) [microns] | Average Particle Size ([1]; Source: the product of Application No. 09/484,687) [microns] | Compaction ([2]; without binder, 5000 psi, no dwell time, die dusted with micronized polypropylene wax, listed as 1,3-dibromo-5,5-dimethyhydantoin) | Average Particle Size [1, 4] | compaction into tablets without binder (state of tablets released from the die) [2] | Crush strength [3] [lb/in]
CC1(C)C(=O)N(Cl)C(=O)N1Br [BCDMH - Aldrich, N,N′-bromochloro-5,5-dimethylhydantoin] | 323.8 | 877.9 | 409.9 | 173.9 | 65.39 | 29.35 | 323.8 |  |  |  |  | about 324 microns | intact and exhibited no visual surface imperfections | 83.9
